In test [1] the target is MDM2 (Homo sapiens (Human), UniProt Q00987). The test can be described thus: In vitro MDM2 HTRF assay (inhibition of p53-MDM2 interaction). Type of test: binding. The following applies: GST-MDM2 / biotinylated p53 peptide. In general terms: Time-resolved FRET reads energy transfer from a long-lived donor to a nearby acceptor.
Test [2] has as its system BCL-2-dependent acute lymphoblastic leukemia (ALL) cell line RS4;11 overexpressing Bcl-2 G101V. The experiment in a line: cells. The test is classed as cell-based. As to conditions: Homo sapiens, RS4-11; about 72 hours, ATPlite luminescence; read-out: RS4;11-G101V IC50. As to the method:
Biological Example 2: In vitro Anti-proliferation Assay in BCL-2-dependent acute lymphoblastic leukemia (ALL) cell line RS4; 11 overexpressing Bcl-2 G101V
Cell antiproliferation was assayed by PerkinElmer ATPlite™ Luminescence Assay System. Briefly, the various test cancer cell lines were plated at a density of about 1×10^4 cells per well in Costar 96-well plates, and were incubated with different concentrations of compounds for about 72 hours in medium supplemented with 5% FBS or 10% normal human serum (NHS). One lyophilized substrate solution vial was then reconstituted by adding 5 mL of substrate buffer solution, and was agitated gently until the solution was homogeneous. About 50 μL of mammalian cell lysis solution was added to 100 μL of cell suspension per well of a microplate, and the plate was shaken for about five minutes in an orbital shaker at −700 rpm. This procedure was used to lyse the cells and to stabilize the ATP. Next, 50 μL substrate solution was added to the wells and microplate was shaken for five minutes in an orbital shaker at −700 rpm. Finally, the luminescence was measured by a PerkinElmer TopCount® Microplate Scintillation Counter. Such assays, carried out with a range of doses of test compounds, allowed the determination of the cellular anti-antiproliferative IC50 of the compounds of the present invention.

Sequence of MDM2 (Q00987 whole entry): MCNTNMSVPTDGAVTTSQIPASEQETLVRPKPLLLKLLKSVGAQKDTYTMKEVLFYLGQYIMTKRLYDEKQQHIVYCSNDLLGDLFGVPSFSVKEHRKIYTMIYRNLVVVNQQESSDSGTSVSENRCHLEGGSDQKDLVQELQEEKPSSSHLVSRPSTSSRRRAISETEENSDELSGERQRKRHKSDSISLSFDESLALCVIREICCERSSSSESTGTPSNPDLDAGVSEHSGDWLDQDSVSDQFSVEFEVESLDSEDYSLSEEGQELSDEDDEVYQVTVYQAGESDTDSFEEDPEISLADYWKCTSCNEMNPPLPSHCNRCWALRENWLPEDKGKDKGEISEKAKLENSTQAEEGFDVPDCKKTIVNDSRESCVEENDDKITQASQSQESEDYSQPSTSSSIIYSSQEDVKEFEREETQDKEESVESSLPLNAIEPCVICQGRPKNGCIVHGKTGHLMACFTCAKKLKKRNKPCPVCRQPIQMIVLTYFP

`COc1cc(C(=O)N2CCC3(CC2)C[C@H]3C#Cc2cccc3c2CN(C2CCC(=O)NC2=O)C3=O)ccc1NC(=O)[C@@H]1N[C@@H](CC(C)(C)C)[C@@]2(CNc3cc(Cl)ccc32)[C@H]1c1cccc(Cl)c1F` (stereo partly drawn) [Example 43, (2′S,3S,4′S,5′R)-6-chloro-4′-(3-chloro-2-fluorophenyl)-2′-(2,2-dimethylpropyl)-N-{4-[(1R)-1-{2-[2-(2,6-dioxopiperidin-3-yl)-1-oxo-3H-isoindol-4-yl]ethynyl}-6-azaspiro[2.5]octane-6-carbonyl]-2-methoxyphenyl}-1,2-dihydrospiro[indole-3,3′-pyrrolidine]-5′-carboxamide]: the IC50 in test [1] was determined as 4.67 nM; in test [2], 28.3 nM.

Regarding `COc1cc(C(=O)N[C@@H]2CCCN(CC#Cc3cccc4c3CN(C3CCC(=O)NC3=O)C4=O)C2)ccc1NC(=O)[C@@H]1N[C@@H](CC(C)(C)C)[C@@]2(CNc3cc(Cl)ccc32)[C@H]1c1cccc(Cl)c1F` (stereo partly drawn) [Example 50, (2′S,3S,4′S,5′R)-6-chloro-4′-(3-chloro-2-fluorophenyl)-2′-(2,2-dimethylpropyl)-N-(4-{[(3R)-1-{3-[2-(2,6-dioxopiperidin-3-yl)-1-oxo-3H-isoindol-4-yl]prop-2-yn-1-yl}piperidin-3-yl]carbamoyl}-2-methoxyphenyl)-1,2-dihydrospiro[indole-3,3′-pyrrolidine]-5′-carboxamide], the IC50 in test [1] amounted to 1.59 nM; in test [2], 23.5 nM.

Consider `COc1cc(C(=O)N[C@H]2CCC[C@H](C#Cc3cccc4c3CN(C3CCC(=O)NC3=O)C4=O)C2)ccc1NC(=O)[C@@H]1N[C@@H](CC(C)(C)C)[C@@]2(CNc3cc(Cl)ccc32)[C@H]1c1cccc(Cl)c1F` (stereo partly drawn) [Example 35, (2′S,3S,4′S,5′R)-6-chloro-4′-(3-chloro-2-fluorophenyl)-2′-(2,2-dimethylpropyl)-N-(4-{[(1S,3S)-3-{2-[2-(2,6-dioxopiperidin-3-yl)-1-oxo-3H-isoindol-4-yl]ethynyl}cyclohexyl]carbamoyl}-2-methoxyphenyl)-1,2-dihydrospiro[indole-3,3′-pyrrolidine]-5′-carboxamide], for which the IC50 in test [1] came out at 3.74 nM; in test [2], 82.7 nM.

Turning to `COc1cc(C(=O)N2CC[C@H](C#Cc3cccc4c3CN(C3CCC(=O)NC3=O)C4=O)C2)ccc1NC(=O)[C@@H]1N[C@@H](CC(C)(C)C)[C@@]2(CNc3cc(Cl)ccc32)[C@H]1c1cccc(Cl)c1F` (stereo partly drawn) [Example 48, (2′S,3S,4′S,5′R)-6-chloro-4′-(3-chloro-2-fluorophenyl)-2′-(2,2-dimethylpropyl)-N-{4-[(3R)-3-{2-[2-(2,6-dioxopiperidin-3-yl)-1-oxo-3H-isoindol-4-yl]ethynyl}pyrrolidine-1-carbonyl]-2-methoxyphenyl}-1,2-dihydrospiro[indole-3,3′-pyrrolidine]-5′-carboxamide], the IC50 in test [1] stood at 1.21 nM; in test [2], 12.4 nM.

Take `COc1cc(C(=O)NCCCC#Cc2cccc3c2CN(C2CCC(=O)NC2=O)C3=O)ccc1NC(=O)[C@@H]1N[C@@H](CC(C)(C)C)[C@@]2(CNc3cc(Cl)ccc32)[C@H]1c1cccc(Cl)c1F` (stereo partly drawn) [Example 16, (2′S,3S,4′S,5′R)-6-chloro-4′-(3-chloro-2-fluorophenyl)-N-(4-((5-(2-(2,6-dioxopiperidin-3-yl)-1-oxoisoindolin-4-yl)pent-4-yn-1-yl)carbamoyl)-2-methoxyphenyl)-2′-neopentylspiro[indoline-3,3′-pyrrolidine]-5′-carboxamide]: the IC50 was 1.54 nM in test [1] and 10.1 nM in test [2].

For `COc1cc(C(=O)N2CCC(C#Cc3cccc4c3CN(C3CCC(=O)NC3=O)C4=O)CC2)ccc1NC(=O)[C@@H]1N[C@@H](CC(C)(C)C)[C@@]2(CNc3cc(Cl)ccc32)[C@H]1c1cccc(Cl)c1F` (stereo partly drawn) [Example 20, (2′S,3S,4′S,5′R)-6-chloro-4′-(3-chloro-2-fluorophenyl)-2′-(2,2-dimethylpropyl)-N-[4-(4-{2-[2-(2,6-dioxopiperidin-3-yl)-1-oxo-3H-isoindol-4-yl]ethynyl}piperidine-1-carbonyl)-2-methoxyphenyl]-1,2-dihydrospiro[indole-3,3′-pyrrolidine]-5′-carboxamide], the IC50 is 3.67 nM in test [1] and 31.9 nM in test [2].

As for `COc1cc(C(N)=O)ccc1NC(=O)[C@@H]1N[C@@H](CC(C)(C)C)[C@@]2(CNc3cc(Cl)ncc32)[C@H]1c1cccc(Cl)c1F` [Example 9, (2S,3S,4S,5R)—N-(4-carbamoyl-2-methoxyphenyl)-6′-chloro-4-(3-chloro-2-fluorophenyl)-2-(2,2-dimethylpropyl)-1′,2′-dihydrospiro[pyrrolidine-3,3′-pyrrolo[3,2-c]pyridine]-5-carboxamide], the IC50 in test [1] came to 0.58 nM; in test [2], 11 nM.

Consider `COc1cc(C(=O)NC23CC(C#Cc4cccc5c4CN(C4CCC(=O)NC4=O)C5=O)(C2)C3)ccc1NC(=O)[C@@H]1N[C@@H](CC(C)(C)C)[C@@]2(CNc3cc(Cl)ccc32)[C@H]1c1cccc(Cl)c1F` (stereo partly drawn) [Example 21, (2′S,3S,4′S,5′R)-6-chloro-4′-(3-chloro-2-fluorophenyl)-2′-(2,2-dimethylpropyl)-N-{4-[(3-{2-[2-(2,6-dioxopiperidin-3-yl)-1-oxo-3H-isoindol-4-yl]ethynyl}bicyclo[1.1.1]pentan-1-yl)carbamoyl]-2-methoxyphenyl}-1,2-dihydrospiro[indole-3,3′-pyrrolidine]-5′-carboxamide], for which the results for the IC50 in test [1] and in test [2] were 3.45 nM and 448 nM, respectively.

As to `COc1cc(C(N)=O)ccc1NC(=O)[C@@H]1N[C@@H](CC(C)(C)C)[C@@]2(CNc3cc(C(F)(F)F)ncc32)[C@H]1c1cccc(Cl)c1F` [Example 11, (2S,3S,4S,5R)—N-(4-carbamoyl-2-methoxyphenyl)-4-(3-chloro-2-fluorophenyl)-2-(2,2-dimethylpropyl)-6′-(trifluoromethyl)-1′,2′-dihydrospiro[pyrrolidine-3,3′-pyrrolo[3,2-c]pyridine]-5-carboxamide], the IC50 is 0.18 nM in test [1] and 44.7 nM in test [2].

In the case of `COc1cc(C(=O)NCCCC#Cc2cccc3c2CN([C@H]2CCC(=O)NC2=O)C3=O)ccc1NC(=O)[C@@H]1N[C@@H](CC(C)(C)C)[C@@]2(CNc3cc(Cl)ccc32)[C@H]1c1cccc(Cl)c1F` [Example 18, (2′S,3S,4′S,5′R)-6-chloro-4′-(3-chloro-2-fluorophenyl)-N-(4-((5-(2-((S)-2,6-dioxopiperidin-3-yl)-1-oxoisoindolin-4-yl)pent-4-yn-1-yl)carbamoyl)-2-methoxyphenyl)-2′-neopentylspiro[indoline-3,3′-pyrrolidine]-5′-carboxamide], the IC50 in test [1] was found to be 1.3 nM; in test [2], 5.91 nM.

As for `COc1cc(C(=O)N2CCC[C@H](CC#Cc3cccc4c3CN(C3CCC(=O)NC3=O)C4=O)C2)ccc1NC(=O)[C@@H]1N[C@@H](CC(C)(C)C)[C@@]2(CNc3cc(Cl)ccc32)[C@H]1c1cccc(Cl)c1F` (stereo partly drawn) [Example 24, (2′S,3S,4′S,5′R)-6-chloro-4′-(3-chloro-2-fluorophenyl)-N-(4-((3R)-3-(3-(2-(2,6-dioxopiperidin-3-yl)-1-oxoisoindolin-4-yl)prop-2-yn-1-yl)piperidine-1-carbonyl)-2-methoxyphenyl)-2′-neopentylspiro[indoline-3,3′-pyrrolidine]-5′-carboxamide], the IC50 in test [1] stood at 2.97 nM; in test [2], 21.1 nM.

Compound `COc1cc(N2CCC[C@@H](C#Cc3cccc4c3CN([C@H]3CCC(=O)NC3=O)C4=O)C2)ccc1NC(=O)[C@@H]1N[C@@H](CC(C)(C)C)[C@@]2(CNc3cc(Cl)ccc32)[C@H]1c1cccc(Cl)c1F` [Example 30, (2′S,3S,4′S,5′R)-6-chloro-4′-(3-chloro-2-fluorophenyl)-N-(4-((S)-3-((2-((S)-2,6-dioxopiperidin-3-yl)-1-oxoisoindolin-4-yl)ethynyl)piperidin-1-yl)-2-methoxyphenyl)-2′-neopentylspiro[indoline-3,3′-pyrrolidine]-5′-carboxamide] registered an IC50 in test [1] of 13.2 nM.

`COc1cc(C(N)=O)ccc1NC(=O)[C@H]1N[C@H](CC(C)(C)C)[C@]2(CNc3cc(C(F)(F)F)ncc32)[C@@H]1c1cccc(Cl)c1F` [Example 12, (2R,3R,4R,5S)—N-(4-carbamoyl-2-methoxyphenyl)-4-(3-chloro-2-fluorophenyl)-2-(2,2-dimethylpropyl)-6′-(trifluoromethyl)-1′,2′-dihydrospiro[pyrrolidine-3,3′-pyrrolo[3,2-c]pyridine]-5-carboxamide]: the IC50 in test [1] was found to be 103 nM.

Compound `COc1cc(C(N)=O)ccc1NC(=O)[C@H]1N[C@H](CC(C)(C)C)[C@]2(CNc3cc(Cl)ncc32)[C@@H]1c1cccc(Cl)c1F` [Example 10, (2R,3R,4R,5S)—N-(4-carbamoyl-2-methoxyphenyl)-6′-chloro-4-(3-chloro-2-fluorophenyl)-2-(2,2-dimethylpropyl)-1′,2′-dihydrospiro[pyrrolidine-3,3′-pyrrolo[3,2-c]pyridine]-5-carboxamide] gave an IC50 in test [1] of 276 nM.

In turn, `COc1cc(C(=O)NCCCC#Cc2cccc3c2CN(C2CCC(=O)N(C)C2=O)C3=O)ccc1NC(=O)[C@@H]1N[C@@H](CC(C)(C)C)[C@@]2(CNc3cc(Cl)ccc32)[C@H]1c1cccc(Cl)c1F` (stereo partly drawn) [Example 19, (2′S,3S,4′S,5′R)-6-chloro-4′-(3-chloro-2-fluorophenyl)-2′-(2,2-dimethylpropyl)-N-[2-methoxy-4-({5-[2-(1-methyl-2,6-dioxopiperidin-3-yl)-1-oxo-3H-isoindol-4-yl]pent-4-yn-1-yl}carbamoyl)phenyl]-1,2-dihydrospiro[indole-3,3′-pyrrolidine]-5′-carboxamide] had an IC50 in test [1] of 2.03 nM.
